Data on 3 molecules can be found in PMC6382696, “Drug Repurposing: The Anthelmintics Niclosamide and Nitazoxanide Are Potent TMEM16A Antagonists That Fully Bronchodilate Airways” (Frontiers in Pharmacology, 2019).

For one data set, the system named is human ASM cells. Kind of data set: Eact-induced depolarization of human ASM cells (FLIPR membrane potential). In kind it is cell-based. An excerpt: While the method above using histamine represents the standard protocol we used to evaluate compound effects in blocking pro-contractile depolarization of human BSMCs, for some experiments provided as Supplementary Figures 1–44 we employed the cholinergics methacholine or carbachol instead of histamine, or evaluated if the TMEM16A opener, Eact, could itself act like contractants to induce BSMC membrane depolarization.
3.31 Supplementary Figure 31
Supplementary Figure 31. The small molecule TMEM16A activator, Eact , induces depolarization of primary human airway smooth muscle cells like the contractant carbachol. Kinetic traces from the FLIPR membrane potential assay indicate Eact (A) and carbachol (B) elicit a concentration dependent depolarization of human ASM cells which were serum starved for 4 hours [prf SmGM overnight + 4h prf SmBM]. The potency for Eact depolarization of ASM cells isolated from a normal, asthmatic or COPD patient is shown in panel (C). The […]
report for activation of TMEM16A. RFU, relative fluorescence units. AUC, area under the curve.
(also on this page, place not known: ‘Eact’ Carbachol TMEM16A 3.0 µM A B C)
(1 picture or pasted object on this page, not shown here)

A further data set relates to TMEM16A. The note with it: ref Namkung et al., 2011; read-out: EC50 in activating TMEM16A; cited from earlier work.
For data set [1], the system named is human bronchial epithelial ALI cultures. Kind of data set: Muc5AC secretion from human bronchial epithelial ALI cultures. In kind it is cell-based. The settings on record: 5 μM, 72 hours, p < 0.05. The method, then:
(§1) 1.2 Effects of the TMEM16A opener Eact on leukotriene secretion and Muc5AC mucin production from human bronchial epithelial air-liquid interface cultures.
(§2) Normal, asthma and COPD human bronchial epithelial (HBE) cells were from Lonza (Walkersville, MD). Cells were grown on […] transparent PET transwell membranes insert (BD biosciences, San Diego). S-ALI air-liquid interface media (Lonza) was changed every other day until the cells reached confluence, at which time the apical medium was removed to establish an air liquid interface cultures. The basolateral medium was changed every other day. All experimentation was carried out on day 14-18 after ALI establishment. At this point, mature secretory cells are present in these differentiating cultures and the cells respond with maximal […] to IL-13 (10 ng/ml) (Peprotech, […]
(§3) Human ALI cultures from a normal donor were treated with Eact, Eact vehicle and 10 ng/ml IL13 in basolateral medium for 48 hrs.
(§4) After 48hr, 100 µl of basolateral medium were collected for determining leukotriene B4 and C4 secretion using ELISA kits from Enzo Life Sciences, Inc. and LSBio LifeSpan Biosciences Inc., respectively, and by following manufacture’s protocols. […]
(§5) Levels of Muc5AC protein in apical washes was then determined using a Muc5AC ELISA kit (Cosmo Bio USA, Carlsbad, CA) and following the manufacture’s protocol.

The test system is the same in data set [2]. Kind of data set: Leukotriene (LTC4, LTB4) secretion from human bronchial epithelial ALI cultures. The note with it: 48 hrs, p < 0.05. In kind it is cell-based. The procedure:
as §1, §2, §3, §4, §5

The target in a further data set is T1, TMEM16A (acd) (Homo sapiens, UniProt Q5XXA6).
T1 sequence (Q5XXA6 1-986): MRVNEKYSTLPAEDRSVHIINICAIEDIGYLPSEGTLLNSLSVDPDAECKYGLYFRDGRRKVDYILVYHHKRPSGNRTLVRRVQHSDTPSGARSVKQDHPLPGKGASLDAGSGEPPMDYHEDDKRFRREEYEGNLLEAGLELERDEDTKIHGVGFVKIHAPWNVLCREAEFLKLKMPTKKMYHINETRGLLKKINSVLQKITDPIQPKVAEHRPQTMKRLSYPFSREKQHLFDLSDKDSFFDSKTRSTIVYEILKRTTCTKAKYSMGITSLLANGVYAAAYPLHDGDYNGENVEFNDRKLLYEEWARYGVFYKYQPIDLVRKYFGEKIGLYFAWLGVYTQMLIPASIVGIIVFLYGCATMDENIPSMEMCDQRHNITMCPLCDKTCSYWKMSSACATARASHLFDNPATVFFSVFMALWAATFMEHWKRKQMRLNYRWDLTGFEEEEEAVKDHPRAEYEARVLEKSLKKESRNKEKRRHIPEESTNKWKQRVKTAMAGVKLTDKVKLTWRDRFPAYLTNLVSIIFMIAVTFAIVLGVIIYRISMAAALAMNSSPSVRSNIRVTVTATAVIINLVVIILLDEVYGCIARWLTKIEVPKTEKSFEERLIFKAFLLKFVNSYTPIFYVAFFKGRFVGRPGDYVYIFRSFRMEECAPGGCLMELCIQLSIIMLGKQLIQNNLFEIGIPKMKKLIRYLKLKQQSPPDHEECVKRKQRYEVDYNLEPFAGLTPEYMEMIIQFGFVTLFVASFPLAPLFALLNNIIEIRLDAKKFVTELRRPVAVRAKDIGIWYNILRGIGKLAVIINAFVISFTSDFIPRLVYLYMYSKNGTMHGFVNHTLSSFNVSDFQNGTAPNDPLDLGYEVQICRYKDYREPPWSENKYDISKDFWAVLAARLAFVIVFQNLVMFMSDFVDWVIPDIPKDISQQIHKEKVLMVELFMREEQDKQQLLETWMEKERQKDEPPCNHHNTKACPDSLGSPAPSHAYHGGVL
Kind of data set: QPatch whole-cell electrophysiology, HEK293 TMEM16A (acd). The note with it: QPatch. Type of data set: cell-based. An excerpt:
HEK293 cells stably expressing the TMEM16A (acd) variant were purchased from SB Drug Discovery. The HEK293 TMEM16A (abc) stable cell line was from ChanTest and COLO-205 cells were purchased from ATCC. The same standard buffers and recording conditions listed below were used for QPatch studies on all three cell lines.
Recording Solutions: were made weekly as below and stored at room temperature until used. It is recommended not to add ATP to internal solution until immediately before using on the QPatch. The external buffer (in mM) was 140 NaCl, 4 KCl, 2 CaCl2, 1 MgCl2, 10 HEPES, 10 Glucose, pH7.4, while the internal buffer (in mM) was 110 CsCl, 20 TEA-Cl, 5.374 CaCl2, 1.75 MgCl2, 10 EGTA, 10 HEPES, 4 Na2ATP, pH 7.2.
Once established in whole-cell configuration, cells were clamped to a holding potential (Vhold) of 0 mV on 48 well single hole patch plate. A standardized IV protocol was used to elicit ionic current through the TMEM16A chloride channel at 20 s intervals. Steady-state voltage pulses were from −100 mV to +100 mV in +20 mV steps for a duration of 500 ms. After each pulse the voltage was returned to −100 mV for 50 ms to obtain tail currents, and then returned to the holding potential of 0 mV until the beginning of the next sweep. […] This ensures a minimum of 60 s per concentration incubation before measuring current block. Currents were acquired at 10 kHz and filtered at 2 kHz, leak subtraction and Rseries were disabled. A 1 MΩ minimum resistance was set because cells are held in an open channel state and therefore resistance is low.
A cumulative concentration response was measured where each cell is exposed to five concentrations of test article with a dilution factor of 1:5 (e.g., 0.048, 0.24, 1.2, 6, and 30 μM). Cells were recorded for ∼60 s per solution/compound addition. Initially, external solution is applied twice to allow currents to stabilize. Then vehicle (from the saline reservoir) is added twice to monitor any effect 0.3% DMSO might have on currents. This leads directly into the concentration runs by applying Concentration 1 (single addition) for 1 min. Concentration 2 is then applied for the subsequent minute, etc. Recovery/washout was monitored for a final minute with a final external solution addition.
[…] […] Each cell’s current magnitude was then normalized to itself at the initial 0.3% vehicle control period prior to compound application. This step is to account for differences in current size for each cell. Normalized responses to test article were plotted against their concentrations to reveal a concentration-inhibition plot.
A Normalized Group Hill fit was then performed on the plotted results to yield a pooled IC50 value, reconstructed from a minimum of two cells/concentration. The baseline response as well as the full response were constrained to 1 and 0, respectively.
For orientation: Patch clamp records ionic current or voltage across a cell membrane.

In a further data set the target is T2, hTMEM16A (abc) (Homo sapiens, UniProt Q5XXA6, DEL476-501).
T2 sequence (Q5XXA6 with tags, fused parts or gaps isoform Q5XXA6-5 DEL539-564): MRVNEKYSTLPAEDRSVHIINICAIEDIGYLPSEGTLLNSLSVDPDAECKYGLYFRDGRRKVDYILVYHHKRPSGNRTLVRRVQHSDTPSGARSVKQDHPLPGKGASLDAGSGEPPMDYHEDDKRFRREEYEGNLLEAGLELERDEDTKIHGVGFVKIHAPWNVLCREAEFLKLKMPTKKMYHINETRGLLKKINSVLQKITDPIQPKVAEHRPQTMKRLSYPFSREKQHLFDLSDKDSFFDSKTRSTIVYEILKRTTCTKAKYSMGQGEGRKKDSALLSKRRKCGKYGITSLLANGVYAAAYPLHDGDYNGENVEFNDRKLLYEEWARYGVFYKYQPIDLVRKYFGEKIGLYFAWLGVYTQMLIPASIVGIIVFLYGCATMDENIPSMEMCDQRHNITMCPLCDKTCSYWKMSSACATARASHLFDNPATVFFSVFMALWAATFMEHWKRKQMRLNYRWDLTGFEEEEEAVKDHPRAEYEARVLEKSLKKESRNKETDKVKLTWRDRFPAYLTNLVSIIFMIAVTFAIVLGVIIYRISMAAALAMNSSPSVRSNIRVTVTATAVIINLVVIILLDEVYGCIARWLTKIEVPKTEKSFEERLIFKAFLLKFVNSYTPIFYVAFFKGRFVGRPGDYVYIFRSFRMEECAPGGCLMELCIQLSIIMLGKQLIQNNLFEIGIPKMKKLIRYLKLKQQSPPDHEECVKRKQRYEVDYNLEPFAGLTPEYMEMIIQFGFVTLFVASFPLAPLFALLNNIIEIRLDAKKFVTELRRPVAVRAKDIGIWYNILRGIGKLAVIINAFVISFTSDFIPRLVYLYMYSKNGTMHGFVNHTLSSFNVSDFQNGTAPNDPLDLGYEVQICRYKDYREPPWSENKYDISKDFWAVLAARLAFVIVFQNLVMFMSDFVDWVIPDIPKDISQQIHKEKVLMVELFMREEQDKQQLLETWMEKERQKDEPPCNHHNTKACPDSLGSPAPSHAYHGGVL
Kind of data set: medchem TMEM16A halide-sensitive YFP assay, 22-point dose-response. In kind it is cell-based. The arrangement: expressed in transfected cells. The method, then: The TMEM16A HEK293T eYFP (H149Q, I153L) stable cell line for medchem support was generated by transfecting 10 μg of linearized hTMEM16A(abc) DNA constructs into HEK293T eYFP (H149Q,I153L) stable cells. The transfected cells were cultured under 200 μg/ml of hygromycin B selection for 20 days and the stable pool was single cell seeded in 96 well plate and duplicated plate were made after single cell clones were formed. YFP function assay were performed on duplicated plate and clones producing higher changes in fluorescence from the YFP assay were chosen for further expansion to form a stable cell line.
Plates were incubated for 24 h at 37°C with 5% CO2. On the assay day, medium was removed and replaced with 20 μl/well of assay buffer (Hank’s Balanced Salt Solution with 10 mM HEPES pH 7.4), 10 μl/well of 40x diluted compounds was added to assay plate and it was incubated at room temperature for 30 min, after which baseline fluorescence was read in the FLIPR instrument for 10 s. Then, 5 μl/well of a 3x trigger solution (24 mM iodide, 3 μM ionomycin in assay buffer) was added and the fluorescence kinetic trace was recorded for 2 min.

The subject of the next data set is cytochrome P450 enzymes. The arrangement: method as in White, 2004; Anderson and Curran, 2007; Rossignol, 2014. The note with it: ref White, 2004; Anderson and Curran, 2007; Rossignol, 2014; cited from earlier work.
The test system of the next data set is airways. The arrangement: method as in Stocks et al., 2014. The note with it: ref Stocks et al., 2014; cited from earlier work.

Like-named read-outs stand apart in the source and are kept apart here.

Take `COCCN(C(=O)c1cc(OC)c(OC)c(OC)c1)c1nc(-c2ccccc2)cs1` [Eact]: the 50% effective concentration (EC50) – broadly, the concentration that produces a half-maximal response – with human ASM cells (cells from normal, asthmatic or COPD patient, read-out: average EC50 for depolarizing human ASM cells) is 1000 to 3000 nM; with human ASM cells (read-out: average EC50 for Eact induced ASM depolarization), 1600 nM; in the data set with TMEM16A it was 3000 nM. Besides, the “increase of Muc5AC secretion” value in data set [1] is 2–3 fold. Also, the “increase of leukotriene (LTC4, LTB4) secretion” value in data set [2] is on record as 6–12 fold.
`CC(=O)Oc1ccccc1C(=O)Nc1ncc([N+](=O)[O-])s1` [Nitazoxanide]: the half-maximal inhibitory concentration (IC50) (as a rule, the concentration that gives 50% inhibition) at TMEM16A (acd) (outward current at +100 mV, 170 nM free intracellular calcium, ~60 s per concentration, read-out: TMEM16A Chloride Current (IC50)) stood at 1260 ± 1310 nM; at hTMEM16A (abc) (average, 22-point dose-response, iodide as permeant anion, read-out: TMEM16A eYFP Assay (IC50)), 1230 nM. For the same molecule, the “calcium-activated chloride current inhibited” value on TMEM16A (acd) (maximum antagonist activity) is recorded as “Over 80%”. For the same molecule, on hTMEM16A (abc) (up to 55.6 μM), the “scope of block of ionomycin-induced iodide eYFP quenching” value is “partially inhibiting”. Besides, the “impact on cytochrome P450 enzymes” value in the data set with cytochrome P450 enzymes was “no significant impact”.
As for `OCc1cc(C(O)CNCCCCCCOCCCCc2ccccc2)ccc1O` (centres unmarked) [Salmeterol, salmeterol], the onset of action in the data set on airways is recorded as 90 min.
